Data on 18 compounds can be found in patent US4413006A, “N-Aryl-N-phenoxy-alkyl-piperazine compounds useful in decreasing intracranial pressure” (Tanabe Seiyaku Co., Ltd., priority 1980, dated 1983).

Data set [1] deals with intracranial pressure (cerebrospinal fluid pressure in the cisterna magna). The data set is described as follows: Effect of i.v. injection of test compounds on intracranial pressure in rats (Experiment 1). The conditions noted are these: for Change in intracranial pressure (%), time after administration of test compound 40 minutes / Change in intracranial pressure (%), time after administration of test compound 60 minutes / Change in intracranial pressure (%), time after administration of test compound 120 minutes / Change in intracranial pressure (%), time after administration of test compound 180 minutes: i.v. infusion 0.2 ml/kg/minute for 20 minutes; for Change in intracranial pressure (%), time after administration of test compound 40 minutes: baseline 100, control 106.4; for Change in intracranial pressure (%), time after administration of test compound 60 minutes: baseline 100, control 107.5; for Change in intracranial pressure (%), time after administration of test compound 120 minutes: baseline 100, control 114.4; for Change in intracranial pressure (%), time after administration of test compound 180 minutes: baseline 100, control 110.7. The format is in vivo, Male SD-rats. As to the method:
(Effect of i.v. injection of test compounds on intracranial pressure in rats) Male SD-rats weighing 500 to 800 g (each group consisting of 5 rats) were anesthetized with urethane. A solution of a test compound in an aqueous 5 w/v % mannitol solution was infused via the femoral vein at a rate of 0.2 ml/kg/minute for 20 minutes (when the test compound was used in the form of free base, said solution was prepared by dissolving it in an aqueous 5 w/v % mannitol solution with the aid of 0.5 N hydrochloric acid). Intracranial pressure (i.e., cerebrospinal fluid pressure in the cisterna magna) was continuously monitored via a cannula inserted in the cisterna magna. The cannula was connected to a transducer, and recording were made on graph paper. The effect of the test compound on the intracranial pressure was estimated in terms of the increase or decrease in intracranial pressure, which was calculated in accordance with the following formula: [formula]

A short description of data set [2]: Maximum tolerance dose in mice (Experiment 3). Set-up: species or system male mice. To be noted: mouse, in vivo, ip. Here is the method:
As a result, the maximum tolerance doses of 1-[3-(4-acetamido-2-methoxyphenoxy)-n-propyl]-4-(3-fluorophenyl)-piperazine, 1-[3-(4-acetamido-2-methoxyphenoxy)-n-propyl]-4-(2-fluorophenyl)-piperazine and 1-[3-(4-ethoxycarbonylamino-2-methoxyphenoxy)-n-propyl]-4-phenyl-piperazine methanesulfonate were more than 300 mg/kg.

In data set [3] the test system is apomorphine-induced cage climbing. The data set can be described thus: Anti-apomorphine activity in mice (Experiment 2 (3)). The format is in vivo, male mice. The conditions noted are these: Mus musculus, ip, apomorphine hydrochloride 2.5 mg/kg s.c., dose decreasing climbing mice by 50%. As to the method: (§1) (Inhibitory effect of test compound on central nervous system in mice)
(§2) Inhibitory effect of test compound on central nervous system was examined by the following methods.
A solution or suspension of a test compound in water or an aqueous carboxymethylcellulose solution was administered intraperitoneally to male mice weighing 18 to 20 g (each group consisting of 5 mice). Thirty minutes after administration of the test compound, apomorphine hydrochloride (2.5 mg/kg) was administered subcutaneously to the mice, and the number of the mice which could climb a cage was examined. The 50% effective dose (ED50) of the test compound was estimated in terms of dose which is necessary to decrease the number of the medicated mice which could climb the cage by 50% of the number of a control group (i.e., non-medicated mice) which could climb the cage.

The subject of data set [4] is spontaneous motor activity / central nervous system. The data set can be described thus: Inhibitory effect on spontaneous motor activity in mice (Experiment 2 (1)). The format is in vivo, male mice. To be noted: Mus musculus, ip, 0.5 h, i.p., 30 minutes after administration, dose decreasing motor activity by 50%. As to the method:
as §1, §2
A solution or suspension of a test compound in water or an aqueous carboxymethylcellulose solution was administered intraperitoneally to male mice weighing 18 to 20 g (each group consisting of 5 mice). Thirty minutes after administration of the test compound, the spontaneous motor activity of the mice was measured with an animex activity meter for 5 minutes. The 50% effective dose (ED50) of the test compound was estimated in terms of dose which is necessary to decrease the motor activity of the medicated mice by 50% of that of a control group (i.e., non-medicated mice).

Where two headings read alike, the source gives them in different places.

With `COc1cc(NC(C)=O)ccc1OCCCN1CCN(c2cccc(F)c2)CC1` [Example 5, 1-[3-(4-acetamido-2-methoxyphenoxy)-n-propyl]-4-(3-fluorophenyl)-piperazine], the “decrease in the intracranial pressure” value in data set [1] (femoral vein infusion, dose 1 mg/kg, 40 minutes after administration) is listed as “about 27%”. Further, the MTD at 72 h in data set [2] was above 300 mg/kg.
Consider `COc1cc(NC(C)=O)ccc1OCCCN1CCN(c2ccccc2F)CC1` [Example 7, 1-[3-(4-acetamido-2-methoxyphenoxy)-n-propyl]-4-(2-fluorophenyl)-piperazine], for which the MTD at 72 h in data set [2] is above 300 mg/kg.
For the compound `CCOC(=O)Nc1ccc(OCCCN2CCN(c3ccccc3)CC2)c(OC)c1.CS(=O)(=O)O` [Example 21 methanesulfonate, 1-[3-(4-ethoxycarbonylamino-2-methoxyphenoxy)-n-propyl]-4-phenyl-piperazine methanesulfonate], in data set [1], the “Change in intracranial pressure (%), time after administration of test compound 40 minutes” value is on record as 79.7%; the “Change in intracranial pressure (%), time after administration of test compound 60 minutes” value is given as 79.3%; the “Change in intracranial pressure (%), time after administration of test compound 120 minutes” value was 79.2%; the “Change in intracranial pressure (%), time after administration of test compound 180 minutes” value is on record as 82.2%. The MTD at 72 h in data set [2] (mice, i.p., observed for 72 hours, read-out: maximum tolerance dose) was above 300 mg/kg.
As usually defined, the ED50 is the dose at which the effect has come halfway, by size or by number of responders. The compound `COc1cc(NC(C)=O)ccc1OCCCN1CCN(c2ccccc2F)CC1` [NO. 2 (Table 4)] had an ED50 in data set [3] of 2.8 mg/kg.
As for `COc1cc(NC(C)=O)ccc1OCCCCN1CCN(c2ccccc2F)CC1` [NO. 3 (Table 1)], in data set [1], the “Change in intracranial pressure (%), time after administration of test compound 40 minutes” value is reported as 86.6%; the “Change in intracranial pressure (%), time after administration of test compound 60 minutes” value is given as 91.9%; the “Change in intracranial pressure (%), time after administration of test compound 120 minutes” value amounted to 85.7%; the “Change in intracranial pressure (%), time after administration of test compound 180 minutes” value came to 84.6%.
In turn, `CCOC(=O)Nc1ccc(OCCCN2CCN(c3ccccc3)CC2)c(OC)c1` [NO. 3 (Table 4)] came in with an ED50 in data set [3] of 3 mg/kg.
`CCNc1ccc(OCCCN2CCN(c3ccccc3)CC2)c(OC)c1.Cl` [NO. 4 (Table 1), 1-[3-(4-ethylamino-2-methoxyphenoxy)-n-propyl]-4-phenyl-piperazine hydrochloride]: in data set [1], the “Change in intracranial pressure (%), time after administration of test compound 40 minutes” value is on record as 83.9%; the “Change in intracranial pressure (%), time after administration of test compound 60 minutes” value is 81.1%; the “Change in intracranial pressure (%), time after administration of test compound 120 minutes” value is 86.8%; the “Change in intracranial pressure (%), time after administration of test compound 180 minutes” value is 91.3%.
`COc1cc(NC(C)=O)ccc1OCCCN1CCN(c2ccccc2F)CC1` [NO. 4 (Table 2)]: the ED50 in data set [4] amounted to 0.5 mg/kg.
In the case of `COc1cc(N)ccc1OCCCN1CCN(c2ccccc2)CC1` [NO. 5 (Table 1)], in data set [1], the “Change in intracranial pressure (%), time after administration of test compound 40 minutes” value turned out to be 79.1%; the “Change in intracranial pressure (%), time after administration of test compound 60 minutes” value was found to be 77.0%; the “Change in intracranial pressure (%), time after administration of test compound 120 minutes” value came to 75.0%; the “Change in intracranial pressure (%), time after administration of test compound 180 minutes” value was found to be 75.6%.
Turning to `COc1cc(N)ccc1OCCCN1CCN(c2ccccc2)CC1` [NO. 5 (Table 2), 1-[3-(4-amino-2-methoxyphenoxy)-n-propyl]-4-phenyl-piperazine], the ED50 in data set [4] came to 0.7 mg/kg.
As for `COc1cc(NC(C)C(=O)O)ccc1OCCCN1CCN(c2ccccc2)CC1.Cl` (centres unmarked) [NO. 6 (Table 1), 1-{3-[4-(1-carboxyethylamino)-2-methoxyphenoxy]-n-propyl}-4-phenylpiperazine hydrochloride], in data set [1], the “Change in intracranial pressure (%), time after administration of test compound 40 minutes” value was 81.5%; the “Change in intracranial pressure (%), time after administration of test compound 60 minutes” value came to 86.2%; the “Change in intracranial pressure (%), time after administration of test compound 120 minutes” value is on record as 96.2%; the “Change in intracranial pressure (%), time after administration of test compound 180 minutes” value is reported as 99.0%.
`COc1cc(NC=O)ccc1OCCCN1CCN(c2ccccc2)CC1` [NO. 7 (Table 1), 1-[3-(4-formylamino-2-methoxphenoxy)-n-propyl]-4-phenyl-piperazine]: in data set [1], the “Change in intracranial pressure (%), time after administration of test compound 40 minutes” value was determined as 84.1%; the “Change in intracranial pressure (%), time after administration of test compound 60 minutes” value turned out to be 83.5%; the “Change in intracranial pressure (%), time after administration of test compound 120 minutes” value was found to be 83.5%; the “Change in intracranial pressure (%), time after administration of test compound 180 minutes” value is on record as 81.9%.
Turning to `COc1cc(NC(=O)C(C)C)ccc1OCCCN1CCN(c2ccccc2)CC1` [NO. 8 (Table 1), 1-[3-(4-isobutyrylamino-2-methoxyphenoxy)-n-propyl]-4-phenyl-piperazine], in data set [1], the “Change in intracranial pressure (%), time after administration of test compound 40 minutes” value turned out to be 83.3%; the “Change in intracranial pressure (%), time after administration of test compound 60 minutes” value is on record as 85.4%; the “Change in intracranial pressure (%), time after administration of test compound 120 minutes” value worked out at 85.1%; the “Change in intracranial pressure (%), time after administration of test compound 180 minutes” value came out at 87.1%.
For `COc1cc(NC(=O)C(C)(C)C)ccc1OCCCN1CCN(c2ccccc2)CC1` [NO. 9 (Table 1), 1-[3-(4-t-butylcarbonylamino-2-methoxyphenoxy)-n-propyl]-4-phenyl-piperazine], in that order: 84.1%, 84.9%, 84.9% and 87.4%.
Consider `COc1cc(NC(=O)C2CC2)ccc1OCCCN1CCN(c2ccccc2)CC1` [NO. 10 (Table 1), 1-[3-(4-cyclopropylcarbonylamino-2-methoxyphenoxy)-n-propyl]-4-phenyl-piperazine], for which, in data set [1], the “Change in intracranial pressure (%), time after administration of test compound 40 minutes” value is listed as 85.9%; the “Change in intracranial pressure (%), time after administration of test compound 60 minutes” value was found to be 84.3%; the “Change in intracranial pressure (%), time after administration of test compound 120 minutes” value turned out to be 83.6%; the “Change in intracranial pressure (%), time after administration of test compound 180 minutes” value was found to be 86.2%.
Turning to `COc1cc(NC(=O)C2CCCCC2)ccc1OCCCN1CCN(c2ccccc2)CC1` [NO. 11 (Table 1), 1-[3-(4-cyclohexylcarbonylamino-2-methoxyphenoxy)-n-propyl]-4-phenyl-piperazine], in data set [1], the “Change in intracranial pressure (%), time after administration of test compound 40 minutes” value is given as 91.1%; the “Change in intracranial pressure (%), time after administration of test compound 60 minutes” value amounted to 94.3%; the “Change in intracranial pressure (%), time after administration of test compound 120 minutes” value came to 78.7%; the “Change in intracranial pressure (%), time after administration of test compound 180 minutes” value worked out at 78.8%.
For `COc1cc(NC(=O)C=C(C)C)ccc1OCCCN1CCN(c2ccccc2)CC1` [NO. 12 (Table 1), 1-{3-[4-((2-methyl-1-propenyl)carbonylamino)-2-methoxyphenoxy]-n-propyl}-4-phenylpiperazine], in that order: 76.7%, 84.3%, 91.9% and 93.5%.
As to `COc1cc(NC(=O)OC(C)(C)C)ccc1OCCCN1CCN(c2ccccc2)CC1` [NO. 14 (Table 1), 1-[3-(4-t-butoxycarbonylamino-2-methoxyphenoxy)-n-propyl]-4-phenyl-piperazine], in data set [1], the “Change in intracranial pressure (%), time after administration of test compound 40 minutes” value came out at 78.9%; the “Change in intracranial pressure (%), time after administration of test compound 60 minutes” value is 77.7%; the “Change in intracranial pressure (%), time after administration of test compound 120 minutes” value came to 80.3%; the “Change in intracranial pressure (%), time after administration of test compound 180 minutes” value turned out to be 81.6%.
